Measurements from US12125561B2, “Determination of JAK-STAT3 pathway activity using unique combination of target genes” (InnoSIGN B.V., priority 2017, dated 2024).

Legend:
Type in all cases: cell-based
[1] = system: JAK-STAT3 cellular signaling pathway in EGFR mutant cells of lung cancer; test: JAK-STAT3 pathway activity, lung Bayesian network model, calibration on data set GSE57156; conditions: calibration samples, group 1; DMSO-treated cells considered active; FIG. 9
Description: Herein, available expression data sets of EGFR mutant cells of lung cancer from data set GSE57156 were used.
(§1) Herein, an exemplary Bayesian network model as shown in FIG. 2 was used to model the transcriptional program of the JAK-STAT3 cellular signaling pathway in a simple manner. The model consists of three types of nodes: (a) a transcription factor (TF) element (with states “absent” and “present”) in a first layer 1; (b) target genes TG1, TG2, TGn (with states “down” and “up”) in a second layer 2, and; (c) measurement nodes linked to the expression levels of the target genes in a third layer 3. These can be microarray probesets PS1,1, PS1,2, PS1,3, PS2,1, PSn,1, PSn,m (with states “low” and “high”), as preferably used herein, but could also be other gene expression measurements such as RNAseq or RT-qPCR.
A suitable implementation of the mathematical model, herein, the exemplary Bayesian network model, is based on microarray data. The model describes (i) how the expression levels of the target genes depend on the activation of the TF element, and (ii) how probeset intensities, in turn, depend on the expression levels of the respective target genes. […]

[2] = system: JAK-STAT3 cellular signaling pathway in PC9 NSCLC cells; test: JAK-STAT3 pathway activity prediction, lung model, data set GSE67051, PC9; conditions: PC 9, treated for 8 days, group 1 vs group 2; FIG. 13
Description: as §1
(§2) A suitable implementation of the mathematical model, herein, the exemplary Bayesian network model, is based on microarray data. The model describes (i) how the expression levels of the target genes depend on the activation of the TF element, and (ii) how probeset intensities, in turn, depend on the expression levels of the respective target genes. For the latter, probeset intensities may be taken from fRMA pre-processed Affymetrix HG-U133Plus2.0 microarrays, which are widely available from the Gene Expression Omnibus (GEO, www.ncbi.nlm.nih.gov/geo) and ArrayExpress (www.ebi.ac.uk/arrayexpress). […]

[3] = system: JAK-STAT3 cellular signaling pathway in Ishikawa H cells (derived endometrial carcinomas); test: JAK-STAT3 pathway activity prediction, lung model, data set GSE20854; conditions: FIG. 12
Method: Ishikawa H cells (derived endometrial carcinomas) were dosed with either EGF (epidermal growth factor) or Iressa (gefitinib) for 12 or 24 hours in data set GSE20854.

[4] = system: JAK-STAT3 cellular signaling pathway in epithelial cells from HaCaT cell lines; test: JAK-STAT3 pathway activity prediction, lung model, data set GSE32975; conditions: EGF vs unstimulated control; gefitinib samples in group 6 and group 7; FIG. 11
Description: Epithelial cells from HaCaT cell lines were stimulated with epidermal growth factor (EGF) in data set GSE32975. Each group represents one replica from the cell line.

[5] = system: JAK-STAT3 cellular signaling pathway in tamoxifen initiated, transformation inducible, breast cancer model system; test: JAK-STAT3 pathway activity prediction, lung model, data set GSE64536; conditions: FIG. 15
Description: as §1, §2

[6] = system: JAK-STAT3 cellular signaling pathway in Sez-4 cell line (cutaneous T-cell lymphoma); test: JAK-STAT3 pathway activity prediction, blood model, data set GSE8685; conditions: cells starved of IL-2 for 16 hours, then IL-2 (200 U) resp. IL-15 (20 ng/mL); FIG. 16
Method: A Sez-4 cell line which was derived from a cutaneous T-cell lymphoma (data set GSE8685). […] IL-15 (20 ng/mL).

[7] = dosed for 12 hours, compared to undosed samples harvested at 12 hours
[8] = dosed for 24 hours, compared to undosed samples harvested at 24 hours

Molecule | predicted STAT3 pathway activity (odds that the TF element is present) [3, 7] | predicted STAT3 pathway activity (odds that the TF element is present) [3, 8] | predicted STAT3 pathway activity (odds that the TF element is present) [4] | other results
C#Cc1cccc(Nc2ncnc3cc(OCCOC)c(OCCOC)cc23)c1 [erlotinib] |  |  |  | JAK-STAT3 pathway status of treated cells (odds that the TF element is present) [1]: JAK-STAT3 inactive; predicted STAT3 activity of DMSO-treated cells compared to erlotinib-treated cells [2]: higher
COc1cc2ncnc(Nc3ccc(F)c(Cl)c3)c2cc1OCCCN1CCOCC1 [gefitinib] | decreased STAT3 pathway activity | decreased STAT3 pathway activity | decreased STAT3 pathway activity | 
CC/C(=C(\c1ccccc1)c1ccc(OCCN(C)C)cc1)c1ccccc1 [tamoxifen] |  |  |  | predicted JAK-STAT3 activity of EtOH-treated cells compared to cells initiated with tamoxifen ([5]; 4 hours, group 1 vs group 3): higher; predicted JAK-STAT3 activity of EtOH-treated cells compared to cells initiated with tamoxifen ([5]; 24 hours, group 2 vs group 4): higher
IL-15: cytokine added to IL-2 starved Sez-4 cells |  |  |  | predicted JAK-STAT3 pathway status compared to the control group [6]: active
epidermal growth factor (NSDSECPLSHDGYCLHDGVCMYIEALDKYACNCVVGYIGERCQYRDLKWWELR; Epidermal growth factor; UniProt P01133 971-1023, looked up) [EGF, epidermal growth factor (EGF)] | higher STAT3 activity | higher STAT3 activity | higher STAT3 activity | 
